How the values were obtained:
PC-3 cells = test: Apoptosis by TUNEL assay; type: cell-based, human; details: 2 μM β-lap alone, NQO1-expressing PC-3 cells
Description: Apoptosis was quantified using ApoDirect™ (TUNEL) assays from BD Pharmingen as described (Bey et al., 2007, Proc. Natl. Acad. Sci. USA, 104:11832-837). Samples were analyzed by using FC-500 flow cytometer (Beckman Coulter Electronics, Brea, Calif.) and Elite acquisition software. Data were expressed as means±SE from three independent experiments.

HTB24 = test system: HTB24; set-up: LD50 β-Lap + CAT: unit not given beside the values
Description: (§1) Cells were cultured and treated as described above. […] Experiments were repeated at least three times, and data expressed as relative survival (treated/control×100%) means±SEM. […] The multi-target model was used to describe the shape of relative survival curves. In this model, a final slope (D0) resulting from multiple-event killing and quasithreshold (Dq) doses were used to represent the size or width of the shoulder of the curve. The extrapolation number (n) is also a measure of the width of the shoulder. The three parameters, n, Do, and Dq were related by the expression: loge n=Dq/Do.
(§2) Cells were treated with β-lap with or without dicoumarol for 2 h. […] Data were expressed as relative survival (treated/control×100%). Experiments were repeated at least three times, and data expressed as relative survival means±SEM. […] Human mammary epithelial cells were plated in 48 well dishes in growth media containing a 50:50 mixture of MGEM/DME:F12 medium supplemented with insulin, human epidermal growth factor and hydrocortisone.

H2185 = test system: H2185; set-up: LD50 β-Lap + CAT: unit not given beside the values
Description: as §1, §2

MCF-7 = test system: MCF-7; set-up: LD50 β-Lap + CAT: unit not given beside the values
Description: as §1, §2

ZR751 = test system: ZR751; set-up: LD50 β-Lap + CAT: unit not given beside the values
Description: as §1, §2

HTB122 = test system: HTB122; set-up: LD50 β-Lap + CAT: unit not given beside the values
Description: as §1, §2

Calu-3/NSCLC = test: β-lapachone lethality in NQO1 genotyped cancer cells; type: cell-based, human
Description: (§3) Cell lines, mostly from a 5-panel nonsmall cell lung cancer panel from the UT Southwestern SPORE, were assessed for NQO1 polymorphism status and then monitored for NQO1 enzyme assays using β-lapachone or the standard menadione substrates. Cell line responses to β-lapachone exposures (μM, 2 h) were then assessed and lethal doses causing 50% lethality with or without dicoumarol (40 μM) co-treatments were recorded. NQO1*2/*2 and *3/*3 polymorphisms were detected from NQO1 *1/*1 wild-type sequences by PCR-RFLP. Genomic DNA was extracted from the cells using Qiagen spin columns. Using previously described oligonucleotide primers, PCR products underwent gel electrophoresis. Final genotyping was determined based on the size and pattern of separated bands diagnostic for *1/*1 (wild-type), or polymorphic *2/*2 or *3/*3 NQO1 polymorphisms.

HCC44 = test: as above; type: cell-based, human
Description: as §3

HCC1171/NSCLC = test: as above; type: cell-based, human
Description: as §3

H292 = test: as above; type: cell-based, human
Description: as §3

T47D/BreastCancer = test: as above; type: cell-based, human
Description: as §3

H322 = test: as above; type: cell-based, human
Description: as §3

HCC366/NSCLC = test: as above; type: cell-based, human
Description: as §3

MDA-MB-231/Breast = test: as above; type: cell-based, human
Description: as §3

MDA-MB-468/Breast = test: as above; type: cell-based, human
Description: as §3

HCC2935 = test: as above; type: cell-based, human
Description: as §3

H2073 = test: as above; type: cell-based, human
Description: as §3

H1993 = test: as above; type: cell-based, human
Description: as §3

H1648 = test: as above; type: cell-based, human
Description: as §3

H2009/NSCLC = test: as above; type: cell-based, human
Description: as §3

[1] = test system: MDA-MB-231 cells expressing NQO1 (231+); test: Long term survival assay; type: cell-based, human; details: 231-NQ+ cells
Description: Cells were cultured and treated as described above.
Data were expressed as relative survival (treated/control×100%).

[2] = test system: Human (shown) or mouse rbs; test: Hemolysis of red blood cells; type: cell-based; details: rbs incubated with HPβCD alone, HPβCD-β-lap, or β-lap alone in DMSO
Description: Human (shown) or mouse rbs were incubated with HPβCD alone or HPβCD-β-lap, or β-lap alone in DMSO.

[3] = *3/*3, 2 h, + dicoumarol (40 μM)
[4] = NQO1 genotype *3/*3, 2 h exposure
[5] = *2/*2, 2 h, + dicoumarol (40 μM)
[6] = NQO1 genotype *2/*2, 2 h exposure

## CC1(C)CCC2=C(O1)c1ccccc1C(=O)C2=O [β-Lap, 3,4-dihydro-2,2-dimethyl-2H-naphtho[1,2-b]pyran-5,6-dione]
PC-3 cells
  Apoptosis: 5±2%
HTB24
  LD50 β-Lap + CAT: 3.5
HTB24; human
  LD50 p-Lap + DIC: 6.2
  LD50 β-Lap: 1.5
H2185
  LD50 β-Lap + CAT: 2.6
H2185; human
  LD50 p-Lap + DIC: 6.4
  LD50 β-Lap: 1.3
MCF-7
  LD50 β-Lap + CAT: 4.8
MCF-7; human
  LD50 p-Lap + DIC: 9.0
  LD50 β-Lap: 1.7
ZR751
  LD50 β-Lap + CAT: 3.2
ZR751; human
  LD50 p-Lap + DIC: 6.8
  LD50 β-Lap: 1.4
HTB122
  LD50 β-Lap + CAT: 2.8
HTB122; human
  LD50 p-Lap + DIC: 5.5
  LD50 β-Lap: 1.5
Calu-3/NSCLC; [3]
  LD50 + DIC: 3 µM
Calu-3/NSCLC; [4]
  β-Lap Lethality LD50: 2.4 µM
HCC44; HCC44, *1/*2, 2 h, + dicoumarol (40 μM)
  LD50 + DIC: >10 µM
HCC44; HCC44, NQO1 genotype *1/*2, 2 h exposure
  β-Lap Lethality LD50: 2.8 µM
HCC1171/NSCLC; [3]
  LD50 + DIC: 2 µM
HCC1171/NSCLC; [4]
  β-Lap Lethality LD50: 3 µM
H292; H292, *1/*2, 2 h, + dicoumarol (40 μM)
  LD50 + DIC: >10 µM
H292; H292, NQO1 genotype *1/*2, 2 h exposure
  β-Lap Lethality LD50: 1.8 µM
T47D/BreastCancer; [3]
  LD50 + DIC: 4 µM
T47D/BreastCancer; [4]
  β-Lap Lethality LD50: 4 µM
H322; H322, *1/*1, 2 h, + dicoumarol (40 μM)
  LD50 + DIC: >20 µM
H322; H322, NQO1 genotype *1/*1, 2 h exposure
  β-Lap Lethality LD50: 5.7 µM
HCC366/NSCLC; [5]
  LD50 + DIC: >10 µM
HCC366/NSCLC; [6]
  β-Lap Lethality LD50: >10 µM
MDA-MB-231/Breast; [5]
  LD50 + DIC: >10 µM
MDA-MB-231/Breast; [6]
  β-Lap Lethality LD50: >10 µM
MDA-MB-468/Breast; [5]
  LD50 + DIC: >10 µM
MDA-MB-468/Breast; [6]
  β-Lap Lethality LD50: >10 µM
HCC2935; HCC2935, *1/*3, 2 h, + dicoumarol (40 μM)
  LD50 + DIC: >10 µM
HCC2935; HCC2935, NQO1 genotype *1/*3, 2 h exposure
  β-Lap Lethality LD50: 1.0 µM
H2073; H2073, *1/*1, 2 h, + dicoumarol (40 μM)
  LD50 + DIC: >10 µM
H2073; H2073, NQO1 genotype *1/*1, 2 h exposure
  β-Lap Lethality LD50: 1.8 µM
H1993; H1993, *1/*1, 2 h, + dicoumarol (40 μM)
  LD50 + DIC: >10 µM
H1993; H1993, NQO1 genotype *1/*1, 2 h exposure
  β-Lap Lethality LD50: 1.8 µM
H1648; H1648, *1/*1, 2 h, + dicoumarol (40 μM)
  LD50 + DIC: >20 µM
H1648; H1648, NQO1 genotype *1/*1, 2 h exposure
  β-Lap Lethality LD50: 4.1 µM
H2009/NSCLC; [3]
  LD50 + DIC: 5.4 µM
H2009/NSCLC; [4]
  β-Lap Lethality LD50: 4.3 µM
[1]; 2 h
  Lethal dose: > 2 µM
  Sublethal dose: 1 µM
[1]; 2 h treatment
  LD70 dose: ~2 µM
[2]
  Hemolysis: hemolysis by HPβCD and not β-lapachone
